The values below come from EPA's ToxRefDB 2.

Series [1] concerns rat. The following applies: Carcinogenicity, fischer, Oral, Feed, dose end: 78 week, group: systemic.
The subject of series [2] is mouse. The following applies: Carcinogenicity, b6c3f1, Oral, Feed, dose end: 78 week, group: systemic.
Series [3] has as its system rat. The following applies: Multigenerational reproductive toxicity study; sprague dawley; Oral; Gavage/Intubation; dose end: 17 GD; group: parental; systemic / in life observation / body weight / body weight + systemic / in life observation / food consumption / food consumption + systemic….
Series [4] concerns rat. The conditions noted are these: Sub-acute repeat dose toxicity, sprague dawley, Oral, Gavage/Intubation, dose end: 1 month, group: systemic.
For series [5], the system named is rat. The conditions noted are these: Sub-acute repeat dose toxicity, sprague dawley, Oral, Gavage/Intubation, dose end: 5 day, group: systemic.
Series [6] has as its system dog. The conditions noted are these: Sub-acute repeat dose toxicity, beagle, Oral, Gavage/Intubation, dose end: 7 day, group: systemic.
The test system of series [7] is dog. The following applies: Sub-acute repeat dose toxicity, beagle, Oral, Gavage/Intubation, dose end: 5 day, group: systemic.
Series [8] deals with mouse. The conditions noted are these: Carcinogenicity, b6c3f1, Oral, Feed, dose end: 103 week, group: systemic.
Series [9] relates to rat. The following applies: Subchronic oral toxicity in rodents, fischer, Feed, dose end: 90 day, group: systemic, systemic / in life observation / body weight / body weight gain + systemic / pathology microscopic / kidney / calculus + systemic / ….
The subject of series [10] is rat. The following applies: Carcinogenicity, fischer, Oral, Feed, dose end: 103 week, group: systemic.
In series [11] the test system is rat. The following applies: Subchronic oral toxicity in rodents, fischer, Feed, dose end: 13 week, group: systemic.
The test system of series [12] is mouse. The conditions noted are these: Subchronic oral toxicity in rodents, b6c3f1, Feed, dose end: 13 week, group: systemic.
Series [13] deals with mouse. The following applies: Subchronic oral toxicity in rodents, b6c3f1, Feed, dose end: 90 day, group: systemic.
Series [14] has as its system rat. The following applies: Subchronic oral toxicity in rodents, other, Feed, dose end: 90 day, group: systemic.
Series [15] concerns dog. The following applies: Sub-acute repeat dose toxicity; beagle; Oral; Gavage/Intubation; dose end: 1 month; group: systemic; systemic / in life observation / clinical signs / external lesion(s) + systemic / in life observation / clinical signs / reactivity to ….
The test system of series [16] is rat. The conditions noted are these: Prenatal developmental toxicity study, sprague dawley, Oral, Gavage/Intubation, dose end: 17 GD.
Series [17] relates to rat. The conditions noted are these: Sub-acute repeat dose toxicity, sprague dawley, Oral, Gavage/Intubation, dose end: 1 month, group: systemic. This is another data set of the same source.
Series [18] deals with rat. The following applies: Prenatal developmental toxicity study, sprague dawley, Oral, Gavage/Intubation, dose end: 17 GD. The source holds these as a separate data set.
The next series concerns rabbit. The following applies: Prenatal developmental toxicity study, new zealand white, Oral, Gavage/Intubation, dose end: 19 GD.
In series [19] the test system is rat. The following applies: Fertility (Segment I), sprague dawley, Oral, Gavage/Intubation, dose end: 7 PND.
The mark [20] stands for this setting: systemic / in life observation / body weight / body weight.
Where [21] appears, read: systemic / in life observation / body weight / body weight + systemic / pathology microscopic / liver / adenoma/carcinoma combined + ….
Setting [22] is: systemic / clinical chemistry / cholesterol / cholesterol + systemic / organ weight / liver / absolute + systemic / organ weight / liver / ….
[23] abbreviates: systemic / pathology microscopic / liver / arteritis + systemic / pathology microscopic / liver / degeneration.
Setting [24] is: systemic / in life observation / body weight / body weight + systemic / in life observation / clinical signs / [other] + systemic / in life ….
The mark [25] stands for this setting: systemic / in life observation / body weight / body weight + systemic / in life observation / food consumption / food consumption + systemic….
[26] abbreviates: systemic / in life observation / clinical signs / erythema + systemic / in life observation / clinical signs / prostration + systemic / in ….
Where [27] appears, read: systemic / in life observation / clinical signs / erythema + systemic / in life observation / clinical signs / salivation.
Where [28] appears, read: systemic / in life observation / clinical signs / abnormal feces.
The mark [29] stands for this setting: systemic / in life observation / clinical signs / abnormal feces + systemic / in life observation / clinical signs / emesis.
Where [30] appears, read: systemic / in life observation / body weight / body weight gain.
The mark [31] stands for this setting: systemic / in life observation / body weight / body weight gain + systemic / pathology microscopic / harderian gland / adenoma + systemic / ….
[32] abbreviates: systemic / in life observation / body weight / body weight gain + systemic / pathology gross / thyroid gland / enlarged.
[33] abbreviates: systemic / in life observation / body weight / body weight gain + systemic / pathology gross / thyroid gland / enlarged + systemic / ….
Where [34] appears, read: systemic / in life observation / body weight / body weight + systemic / in life observation / body weight / body weight gain + systemic / in….
Where [35] appears, read: systemic / pathology microscopic / thyroid gland / hyperplasia.
The mark [36] stands for this setting: systemic / in life observation / body weight / body weight gain + systemic / pathology microscopic / thyroid gland / hyperplasia + systemic….
[37] abbreviates: systemic / hematology / erythrocyte (rbc) count differential / erythrocyte (rbc) + systemic / hematology / hemoglobin (hgb) / hemoglobin (….
The mark [38] stands for this setting: group: developmental, developmental / developmental malformation / bone / [other] + developmental / developmental malformation / bone / absent + developmental / ….
[39] abbreviates: group: maternal, reproductive / reproductive performance / postimplantation loss / postimplantation loss + reproductive / reproductive performance / ….
Where [40] appears, read: group: maternal, systemic / in life observation / body weight / body weight gain + systemic / in life observation / food consumption / food consumption.
The mark [41] stands for this setting: systemic / in life observation / clinical signs / body temperature.
Where [42] appears, read: group: developmental, systemic / in life observation / body weight / fetal weight.
Where [43] appears, read: group: maternal, systemic / in life observation / body weight / body weight gain + systemic / in life observation / clinical signs / body cold to touch + ….
Where [44] appears, read: group: maternal, reproductive / reproductive performance / aborted / aborted + reproductive / reproductive performance / postimplantation loss / ….
Where [45] appears, read: group: maternal, reproductive / reproductive performance / aborted / aborted + systemic / in life observation / clinical signs / body temperature + systemic….
Setting [46] is: group: maternal, reproductive / reproductive performance / estrous cycle / abnormal + reproductive / reproductive performance / estrous cycle / corpora lutea….
Where [47] appears, read: group: parental, systemic / in life observation / body weight / body weight gain + systemic / in life observation / clinical signs / salivation + systemic / ….
[48] abbreviates: group: parental, systemic / in life observation / clinical signs / salivation.

In the series with rat [1] (setting [20]), `CN(C)c1ccc(C(=O)c2ccc(N(C)C)cc2)cc1` [Michler's ketone] returned an LOAEL of 12.5 mg/kg/day and an NOAEL of less than 12.5 mg/kg/day. Besides, in the series on rat [1] (setting [21]), the LEL was 12.5 mg/kg/day and the NEL was less than 12.5 mg/kg/day. Besides, in the series on mouse [2] (setting [20]), the LOAEL is 188 mg/kg/day and the NOAEL is less than 188 mg/kg/day. In the series with mouse [2] (setting [21]), the LEL worked out at 188 mg/kg/day and the NEL was less than 188 mg/kg/day.

As for `NC(=O)N(O)[C@@H]1COc2cc(OCc3ccccc3)ccc21`, in the series with rat [3], the LEL came to 1000 mg/kg/day, the LOAEL was greater than 1000 mg/kg/day, the NEL amounted to 100 mg/kg/day and the NOAEL is no less than 1000 mg/kg/day. For the same compound, in the series with rat [4] (setting [22]), the LOAEL was greater than 1000 mg/kg/day and the NOAEL was no less than 1000 mg/kg/day. Moreover, in the series with rat [4] (setting [23]), the LEL came to 100 mg/kg/day and the NEL is less than 100 mg/kg/day.

Consider `COc1ccc(NC(=O)c2c[nH]c3c2C(=O)CCCC3)c(F)c1`, for which the LOAEL in the series with rat [5] (setting [24]) is greater than 250 mg/kg/day; in the series on dog [6] (setting [26]) it was greater than 250 mg/kg/day; with dog [7] (setting [28]) it was greater than 100 mg/kg/day. Moreover, the NOAEL in the series with rat [5] (setting [24]) is no less than 250 mg/kg/day; in the series with dog [6] (setting [26]), no less than 250 mg/kg/day; with dog [7] (setting [28]), no less than 100 mg/kg/day. For the same compound, the LEL with rat [5] (setting [25]) worked out at 25 mg/kg/day; with dog [6] (setting [27]), 10 mg/kg/day; in the series with dog [7] (setting [29]), 5 mg/kg/day. The NEL with rat [5] (setting [25]) was less than 25 mg/kg/day; in the series with dog [6] (setting [27]) it was less than 10 mg/kg/day; in the series with dog [7] (setting [29]), less than 5 mg/kg/day.

On to `Nc1ccc(Oc2ccc(N)cc2)cc1` [4,4'-Oxydianiline], for which the LOAEL with mouse [8] (setting [30]) is 22.5 mg/kg/day; in the series with rat [9], 30 mg/kg/day; with rat [10] (setting [32]), 10 mg/kg/day; in the series on rat [11] (setting [34]), greater than 168 mg/kg/day; in the series with mouse [12] (setting [34]), greater than 557 mg/kg/day; in the series on mouse [13] (setting [36]) it was 90 mg/kg/day. Besides, the NOAEL is less than 22.5 mg/kg/day with mouse [8] (setting [30]); 15 mg/kg/day in the series with rat [9]; less than 10 mg/kg/day with rat [10] (setting [32]); no less than 168 mg/kg/day with rat [11] (setting [34]); no less than 557 mg/kg/day in the series on mouse [12] (setting [34]); 45 mg/kg/day with mouse [13] (setting [36]). The LEL in the series on mouse [8] (setting [31]) was 22.5 mg/kg/day; in the series with rat [9], 30 mg/kg/day; with rat [10] (setting [33]), 10 mg/kg/day; in the series on rat [11] (setting [35]), 27 mg/kg/day; in the series on mouse [12] (systemic / in life observation / body weight / body weight + systemic / in life observation / body weight / body weight gain + systemic / …) it was 138 mg/kg/day; in the series with mouse [13] (setting [30]) it was 45 mg/kg/day. Further, the NEL is less than 22.5 mg/kg/day in the series on mouse [8] (setting [31]); 15 mg/kg/day with rat [9]; less than 10 mg/kg/day in the series with rat [10] (setting [33]); less than 27 mg/kg/day in the series on rat [11] (setting [35]); 68 mg/kg/day with mouse [12] (setting [34]); less than 45 mg/kg/day with mouse [13] (setting [30]).

On to `CNc1ccccc1C(=O)OC` [Methyl 2-(methylamino)benzoate], for which, in the series on rat [14] (setting [37]), the LOAEL is greater than 244 mg/kg/day, the NEL came to 21 mg/kg/day and the no-observed-adverse-effect level (NOAEL) was no less than 244 mg/kg/day. The LEL in the series on rat [14] (systemic / hematology / leukocyte (wbc) count differential / leukocyte (wbc) + systemic / organ weight / kidney / absolute + systemic / …) is 82 mg/kg/day.

On to `O=C(Nc1ccc2[nH]ccc2c1)c1cc2cc(F)ccc2n1Cc1cccc(F)c1`, for which the LEL was 0.05 mg/kg/day with dog [15]; 6 mg/kg/day in the series with rat [16] (setting [38]); 1 mg/kg/day with rat [16] (setting [40]); 2 mg/kg/day in the series with rat [17] (setting [41]); 10 mg/kg/day in the series on rat [18] (setting [42]); 10 mg/kg/day with rat [18] (setting [43]). In addition, the LEL in the series with rabbit (setting [42]) is 5 mg/kg/day; in the series on rabbit (setting [45]) it was 5 mg/kg/day; in the series on rat [19] (setting [46]) it was 6 mg/kg/day; in the series with rat [19] (setting [48]), 1 mg/kg/day. Further, the LOAEL with dog [15] is greater than 1 mg/kg/day; in the series on rat [16] (setting [38]), 6 mg/kg/day; with rat [16] (setting [39]) it was 6 mg/kg/day; in the series with rat [17] (setting [34]), 100 mg/kg/day; in the series on rat [18] (setting [42]), greater than 400 mg/kg/day; with rat [18] (setting [43]) it was greater than 400 mg/kg/day. For the same compound, the LOAEL was greater than 900 mg/kg/day in the series with rabbit (setting [42]), greater than 900 mg/kg/day in the series on rabbit (setting [44]), 6 mg/kg/day with rat [19] (setting [46]) and 6 mg/kg/day in the series with rat [19] (setting [47]). Moreover, the NEL with dog [15] was less than 0.05 mg/kg/day; with rat [16] (setting [38]), 1 mg/kg/day; in the series with rat [16] (setting [40]), less than 1 mg/kg/day; with rat [17] (setting [41]), less than 2 mg/kg/day; with rat [18] (setting [42]), less than 10 mg/kg/day; with rat [18] (setting [43]), less than 10 mg/kg/day. Also, the NEL in the series on rabbit (setting [42]) was less than 5 mg/kg/day; with rabbit (setting [45]) it was less than 5 mg/kg/day; with rat [19] (setting [46]) it was 1 mg/kg/day; in the series on rat [19] (setting [48]), less than 1 mg/kg/day. Also, the NOAEL in the series on dog [15] was no less than 1 mg/kg/day; in the series with rat [16] (setting [38]), 1 mg/kg/day; in the series with rat [16] (setting [39]), 1 mg/kg/day; in the series on rat [17] (setting [34]), 2 mg/kg/day; in the series on rat [18] (setting [42]), no less than 400 mg/kg/day; with rat [18] (setting [43]), no less than 400 mg/kg/day. Besides, the NOAEL with rabbit (setting [42]) is no less than 900 mg/kg/day; in the series with rabbit (setting [44]) it was no less than 900 mg/kg/day; in the series with rat [19] (setting [46]), 1 mg/kg/day; in the series on rat [19] (setting [47]), 1 mg/kg/day.
